Reference: patent US11679107B2 (Eisai R&D Management Co., Ltd., priority 2018, dated 2023)
Read-outs that look alike come from different tables or passages of the source.

Assays:
[1] = system: Ad2 variant pre-mRNAs spliced in HeLa S3 nuclear extracts; assay: In vitro splicing assay (IVS), RT-qPCR of spliced product; format: biochemical; details: for IC50: geometric mean; for Ratio Ad2.1/2.2: ratio of IVS IC50 Ad2.1 to Ad2.2
Experimental: (§1) Batch immobilization of anti-SF3B1 antibody (MBL) to anti-mouse PVT SPA scintillation beads (PerkinElmer) was prepared as follows: for every 2.5 mg of nuclear extracts, 5 μg anti-SF3B1 antibody and 1.5 mg of beads were mixed in 150 μl PBS. The antibody-bead mixture was incubated for 30 min at RT and centrifuged at 18,000 g for 5 min. 150 μl PBS was used to resuspend every 1.5 mg antibody-bead mixture. The beads were suspended and added to the prepared nuclear extracts. The slurry was incubated for 2 h at 4° C. with gentle mixing. The beads were then collected by centrifuging at 18,000 g for 5 min, and washed twice with PBS+0.1% Triton X-100. After a final centrifugation step, every 1.5 mg of beads was suspended with 150 μl of PBS. The SF3b complexes were tested for [^3H]-labelled pladienolide probe binding ([^3H]—PB), synthesized as previously described (Kotake et al., 2007). 100 μl binding reactions were prepared with 50 μl bead slurry and by adding varying concentrations of PB or PB—OH, and after 30 min pre-incubation, 2.5 nM [^3H]—PB was added. The mixture was incubated for 30 min, and luminescence signals were read using a MicroBeta2 Plate Counter (PerkinElmer). Prism 6 (Graphpad) was used for non-linear regression curve fitting of the data. • a. • b. HeLa nuclear extract preparation (for in vitro splicing modulation assay below) • c. HeLa S3 cell pellets were resuspended in hypotonic buffer (10 mM HEPES pH 7.9, 1.5 mM MgCl2, 10 mM KCl, 0.2 mM PMSF, and 0.5 mM DTT) and the suspension was brought up to a total of 5 packed cell volume (PCV). After centrifugation, the supernatant was discarded, and the cells were brought up to 3 PCV with hypotonic buffer and incubated on ice for 10 minutes. Cells were lysed using a dounce homogenizer and then centrifuged. The supernatant was discarded, and the pellet was resuspended with ½ packed nuclear volume (PNV) of low salt buffer (20 mM HEPES pH 7.9, 1.5 mM MgCl2, 20 mM KCl, 0.2 mM EDTA, 25% glycerol, 0.2 mM PMSF, 0.5 mM DTT), followed by ½ PNV of high salt buffer (same as low salt buffer except 1.4 M KCl was used). The nuclei were gently mixed for 30 minutes before centrifuging. The supernatant (nuclear extract) was then dialyzed into storage buffer (20 mM HEPES pH 7.9, 100 mM KCl, 0.2 mM EDTA, 20% glycerol, 0.2 mM PMSF, 0.5 mM DTT). Protein concentration was determined using NanoDrop 8000 UV-Vis spectrophotometer (ThermoFisher Scientific). • d. In vitro splicing assay (IVS)
All Ad2-derived (Pellizzoni et al., 1998) sequences were cloned into pcDNA3.1(+) vector (Promega) using 5′ EcoRI and 3′ XbaI restriction sites. The plasmids were linearized using XbaI and used as DNA templates in the in vitro transcription reactions. The FtzΔi intron-less plasmid (Luo and Reed, 1999) was linearized using EcoRI. All RNAs were in vitro transcribed and then purified using MEGAScript T7 (Invitrogen) and MegaClear (Invitrogen) kits, respectively. For splicing reactions using Ad2 variant pre-mRNAs, […] reactions were prepared using 8 μg nuclear extracts prepared from HeLa S3, 2 ng pre-mRNA, 0.2 ng FTZΔi, and varying concentrations of exemplary payloads or DMSO. After a 15 minute pre-incubation at 30° C., 1 μL splicing activation buffer (0.5 mM ATP, 20 mM creatine phosphate, 1.6 mM MgCl2) was added, and the reactions were incubated for 90 minutes at 30° C. The reactions were then quenched with 13 μL it DMSO, and 25 nL was used for RT-qPCR. RT-qPCR reactions were prepared using TaqMan RNA-to-CT 1-step kit (Life Technologies), RNA from splicing reactions, Ad2 (forward: […]; reverse: […]; probe: […]) and Ftz (forward: […]; reverse: […]; probe: […]) mRNA primer-probe sets. Prism 6 (Graphpad) was used for non-linear regression curve fitting of the formed spliced product and normalized to the control (DMSO) sample.

[2] = molecular target: T1, SF3b complexes (Homo sapiens, UniProt O75533+Q7RTV0); assay: Scintillation proximity assay (SPA) with [3H]-labelled pladienolide probe; format: binding; details: SF3B1 (WT); geometric mean; read-out: SPA-ATS GMean IC50 (nM) SF3B1 (WT)
T1 construct: endogenous in cells; host or cells: Nuclear extracts; A HeLa S3 extract preparation is described for the in vitro splicing assay
Experimental: Scintillation Proximity Assay (SPA) with [^3-H]-Labelled Pladienolide Probe
as §1

[3] = system: NCI-H1568 cells (high MCL1); assay: Cell proliferation and viability, CellTiter-Glo, 72 hours; format: cell-based; details: for GI50: geometric mean
Experimental: Cell lines were maintained in RPMI-1640 (ATCC 30-2001) supplemented with 10% fetal bovine serum (FBS). The Panc lines were supplemented in addition with insulin and FBS up to 15% total.
Compounds for assay were prepared as stocks in 90% dimethyl sulfoxide (DMSO), assessed for purity by LC/MS, and serially diluted in DMSO using a low-volume liquid handler (VIAFLO ASSIST and VIAFLO II electronic 16-channel pipette, 0.5-12.5 μL) in an 11-point half-log serial dilution to create a master dose response (MDR) source used for all tests.
Transfer of compounds from the MDR source plate to cell assay-ready plates were accomplished directly by low-energy acoustic transfer (ATS100, EDC Biosystems). After transfer of compounds to the assay plate, the dose-response range experienced by cells was typically 10 μM-100 pM (5 logs), and final DMSO concentration in the assay was 0.1%, uniformly. Each assay plate was self-anchored containing vehicle/DMSO negative controls, medium-only/positive controls, and cidal control dose-responses of bortezomib and staurosporine. Assay-ready plates were heat-sealed and stored at −20° C. until used, no longer than one month.
A DMSO-matched time zero (T0) plate was read and then all other plates were incubated at 37° C. with 5% CO2 and 95% relative humidity until the end of assay. Cell proliferation and viability assays were performed 72 hours post-treatment depending on cell growth where at least one doubling would have occurred.
Assessment of viability and proliferation was by measurement of cell ATP content using CellTiter-Glo® Luminescent Cell Viability Assay reagent (Promega) according to the manufacturer's instructions (CellTiter-Glo® Luminescent Cell Viability Assay Technical Bulletin Instructions for Use of Product(s) G7570, G7571, G7572, G7573 Literature #TB288, Revised March 2015), using a microtiter plate reader (Envision, PE).
Cell proliferation was evaluated using the time zero (T0) signal as the positive control and the within-plate vehicle wells (DMSO) as the negative control. Data was converted to percent inhibition and falls into the range from −100% to 100% of growth where −100% equals a cidal response and 100% equals uninhibited or maximal growth. Cell growth at or near 0% is considered a static response.

[4] = Ad2.1 pre-mRNA substrate, read-out: qPCR-IVS-ATS GMean IC50 (nM) Ad2.1
[5] = Ad2.2 pre-mRNA substrate, read-out: qPCR-IVS-ATS GMean IC50 (nM) Ad2.2
[6] = NCI-H1568, read-out: CTGlo-ATS GMean GI50 (nM) 72 h NCIH1568.1, NCIH1568.1 cells, 72 h
[7] = NCIH1568.1 cells, 72 h, −100% cidal, 0% static, 100% maximal growth
[8] = 72 h, NCIH1568.1, -100% = cidal, 0% = static, 100% = uninhibited growth
[9] = NCI-H1568, read-out: CTGlo-ATS GMean GI50 (nM) 72 h NCIH1568.1, 72 h, NCIH1568.1

Row | GI50 ([3]; NCI-H1568, 72 h, read-out: CTGlo-ATS GMean GI50 (nM) 72 h NCIH1568.1, 72 h, NCIH1568.1) | Structure (SMILES) | IC50 [1, 4] | IC50 [1, 5] | IC50 [2] | GI50 [3, 6] | CTGlo-ATS Mean MinResponse % 72 h NCIH1568.1 [3, 7] | Ratio Ad2.1/2.2 [1] | CTGlo-ATS Mean MinResponse % 72 h NCIH1568.1 [3, 8] | GI50 [3, 9] | GI50 ([3]; NCI-H1568, 72 h, read-out: CTGlo-ATS GMean GI50 (nM) 72 h NCIH1568.1, NCIH1568.1 cells, 72 h)
1 |  | CCC(=O)N1CCC(N(C)c2cc(F)cc(/C=C(\C)[C@H]3OC(=O)C[C@H](O)CC[C@H](C)[C@@H](OC(=O)N4CCN(C)CC4)/C=C/[C@@H]3C)c2)CC1 [Compound 178] | 20.4 nM | 4.31 nM | 2.16 nM | 6.85 nM | −77.714% |  |  |  | 
2 |  | C/C(=C\c1cc(F)c2nnn(Cc3ccc(Cl)cc3)c2c1)[C@H]1OC(=O)C[C@H](O)CC[C@H](C)[C@@H](OC(=O)N2CCN(C)CC2)/C=C/[C@@H]1C [Compound 145] | 688 nM | 38.1 nM | 69.4 nM | 25 nM | −66.236% |  |  |  | 
3 |  | COc1ccc(CNC(=O)O[C@H]2/C=C/C(C)C(/C(C)=C/c3cc(F)cc(N4CCN(C(=O)Cn5cccn5)CC4)c3)OC(=O)CC(O)CC[C@@H]2C)cc1 (stereo in doubt) [Compound 226, [(2R,3R,4E,6R,7S,10S)-2-[(E)-1-[3-fluoro-5-[4-(2-pyrazol-1-ylacetyl)piperazin-1-yl]phenyl]prop-1-en-2-yl]-10-hydroxy-3,7-dimethyl-12-oxo-1-oxacyclododec-4-en-6-yl] N-[(4-methoxyphenyl)methyl]carbamate] | 8.74 nM | 102 nM | 1.17 nM |  |  | 0.086 | −64.963% | 34.7 nM | 
4 |  | C/C(=C\c1cc(F)cc(N2CCN(C(=O)C3COC3)CC2)c1)[C@H]1OC(=O)C[C@H](O)CC[C@H](C)[C@@H](OC(=O)N2CCN(C)CC2)/C=C/[C@@H]1C [Compound 153] | 14.5 nM | 14.8 nM | 4.83 nM | 2.34 nM | −81.206% |  |  |  | 
5 |  | C/C(=C\c1cc(F)cc(N2CCCNC2=O)c1)[C@H]1OC(=O)C[C@H](O)CC[C@H](C)[C@@H](OC(=O)N2CCN(C)CC2)/C=C/[C@@H]1C [Compound 79] | 18 nM | 12.3 nM | 2.14 nM |  | −72.802% |  |  |  | 4.01 nM
6 |  | C/C(=C\c1cc(F)c2nnn(C3CCS(=O)(=O)CC3)c2c1)[C@H]1OC(=O)C[C@H](O)CC[C@H](C)[C@@H](OC(=O)N2CCN(C)CC2)/C=C/[C@@H]1C [Compound 158] | 18.9 nM | 18.2 nM | 13.9 nM | 6.57 nM | −87.167% |  |  |  | 
7 |  | COCC(=O)N1CCC(N(C)c2cc(F)cc(/C=C(\C)[C@H]3OC(=O)C[C@H](O)CC[C@H](C)[C@@H](OC(=O)N4CCN(C)CC4)/C=C/[C@@H]3C)c2)CC1 [Compound 179] | 31.4 nM | 14.2 nM | 6.15 nM | 8.7 nM | −82.684% |  |  |  | 
8 |  | C/C(=C\c1cc(F)cc(N2CCN(C(=O)Cn3cccn3)CC2)c1)[C@H]1OC(=O)C[C@H](O)CC[C@H](C)[C@@H](OC(=O)N2CCN(C3CCCCCC3)CC2)/C=C/[C@@H]1C [Compound 236, [(2S,3S,4E,6R,7S,10R)-2-[(E)-1-[3-fluoro-5-[4-(2-pyrazol-1-ylacetyl)piperazin-1-yl]phenyl]prop-1-en-2-yl]-10-hydroxy-3,7-dimethyl-12-oxo-1-oxacyclododec-4-en-6-yl] 4-cycloheptylpiperazine-1-carboxylate] | 49.9 nM | 56.2 nM | 84 nM |  |  | 0.889 | −90.096% | 9.92 nM | 
9 | 3.29 nM | C/C(=C\c1cc(F)cc(N2CCN(C(=O)Cn3cccn3)CC2)c1)[C@H]1OC(=O)C[C@H](O)CC[C@H](C)[C@@H](OC(=O)N2CC[C@H](N(C)C)C2)/C=C/[C@@H]1C [Compound 228, [(2S,3S,4E,6R,7S,10R)-2-[(E)-1-[3-fluoro-5-[4-(2-pyrazol-1-ylacetyl)piperazin-1-yl]phenyl]prop-1-en-2-yl]-10-hydroxy-3,7-dimethyl-12-oxo-1-oxacyclododec-4-en-6-yl] (3S)-3-(dimethylamino)pyrrolidine-1-carboxylate] |  |  | 3.96 nM |  |  |  | −77.633% |  | 
10 |  | C/C(=C\c1cc(F)c2nnn(CC3CCOCC3)c2c1)[C@H]1OC(=O)C[C@H](O)CC[C@H](C)[C@@H](OC(=O)N2CCN(C)CC2)/C=C/[C@@H]1C [Compound 148] |  |  | 2.24 nM | 1.42 nM | −85.010% |  |  |  | 
